{"source": "patent US11111222B2", "about": "“Hydroxyeicosatrienoic acid compounds and their use as therapeutic agents” (THE REGENTS OF THE UNIVERSITY OF MICHIGAN, priority 2016, dated 2021)", "key": {"[1]": {"test_system": "washed platelets from WT or 12-LOX−/− mice", "test": "Platelet aggregation, washed murine platelets (lumi-aggregometer)", "format": "cell-based, mouse", "settings": "25 μM 12-LOX oxylipin, 10 min, vs vehicle", "method": "The 12-LOX null C57BL/6 (12-LOX^−/−) mice were generated using homozygous breeding pairs and wild-type (WT) C57BL/6 ([…]) mice were purchased (Jackson Laboratory). […] Mouse blood was diluted with equal volumes of Tyrode's buffer (10 mM HEPES, 11.9 mM sodium bicarbonate, 127.2 mM sodium chloride, 5 mM potassium chloride, 0.4 mM sodium phosphate monobasic, 1 mM magnesium chloride, and 5 mM D-glucose) and centrifuged at 200×g. Platelet-rich-plasma (PRP) was transferred to a tube containing 10× acid citrate dextrose solution (ACD) (2.5% sodium citrate, 1.5% citric acid, and 2% D-glucose) and apyrase (0.02 U/mL), and centrifuged at 2000×g. Platelet count was adjusted to 3×10^8 platelets/mL with Tyrode's buffer for all studies.\nA lumi-aggregometer (Chrono-log model 700D) was used to measure platelet aggregation under stirring conditions (1100 rpm) at 37° C. Prior to agonist stimulation platelets were incubated with a preselected PUFA or oxylipin for 10 minutes."}, "[2]": {"test_system": "Rap1", "test": "Rap1 activation in washed platelets (Rap1-GTP pull-down, Western blot)", "format": "cell-based, mouse", "settings": "25 μM 12-HETrE, PAR4-AP stimulated, vs vehicle", "method": "Following 1 minute of stimulation platelets were lysed with 2× platelet lysis buffer (100 mM Tris HCl, pH 7.4, 150 mM NaCl, 2% IGEPAL, 1% sodium deoxycholate, and 0.05% SDS) containing protease and phosphatase inhibitors. The cytoskeleton was pelleted by centrifugation at 14000×g for 7 minutes at 4° C. Active Rap1 was selectively captured from the supernatant by incubating GST-tagged Rap1 binding domain of RalGDS conjugated to glutathione sepharose beads for one hour on a nutator at 4° C. The beads were then washed 5 times with IP buffer and resuspended in 2× Laemmeli reducing buffer (62.5 mM Tris-HCl, pH 6.8, 2% SDS, 25% glycerol, 0.01% bromophenol blue, 5% β-mercaptoethanol). The samples were boiled for 10 minutes and then loaded onto a 10% SDS-polyacrylamide gel electrophoresis (PAGE) gel. Western blots were performed using a Rap1 antibody and quantified with a LI-COR imager."}, "[3]": {"test_system": "thrombus formation (platelet and fibrin) in cremaster arterioles", "test": "Laser-induced cremaster arteriole thrombosis model", "format": "in vivo, mouse", "method": "Wild type (WT) or 12-LOX^−/− mice (12 weeks of age) were anesthetized by intraperitoneal injection of ketamine/xylazine (100 mg/kg) prior to the exposure of the cremaster muscle arterioles under a dissecting microscope with constant perfusion of preheated bicarbonate-buffered saline (Reheman et al., J Thromb Haemost 3:875-883, 2005; Reheman et al., Blood 113:1809-1817, 2009; Wang et al., J Clin Invest 124:4281-4293, 2014). Anti-platelet (DyLight 488 anti-GPIb, 1 μg/g) and anti-fibrin (Alexa Fluor 647, 0.3 μg/g) antibodies were administered via jugular vein catheter prior to intravital microscopy. DGLA (50 mg/kg) or DMSO (vehicle control) were dissolved in a formulation of 5% DMSO and 45% PEG300 in sterile 1×PBS and then intravenously injected into mice 10 minutes prior to induction of thrombosis. 12(S)-HETrE (6 mg/kg) or equal volume of DMSO (vehicle control) was also intravenously injected into mice 10 minutes prior to induction of thrombosis. Multiple independent thrombi were induced in the arterioles (30-50 μm diameter) in each mouse by a laser ablation system (Ablate! photoablation system; Intelligent Imaging Innovations, Denver, Colo., USA). Images of thrombus formation were acquired in real-time under 63× water-immersion objective with a Zeiss Axio Examiner Z1 fluorescent microscope equipped with solid laser launch system (LaserStack; Intelligent Imaging Innovations) and high-speed sCMOS camera. All captured images were analyzed on Slidebook (Intelligent Imaging Innovations Inc., Denver, Colo., USA)."}, "[4]": {"test": "Cremaster muscle arterial puncture model of hemostasis", "format": "in vivo, mouse", "settings": "laser puncture of cremaster arteriole; vs control treated mice", "method": "Mice were anesthetized, tail vein injected with anti-platelet and anti-fibrin antibodies and their cremaster muscle arterioles were prepared as described above. A high intensity laser pulse from the laser ablation system was used to puncture a hole in the cremaster muscle arteriole wall as visualized by red blood cell (RBC) leakage from the vessel. Images of RBCs leakage and hemostatic plug formation were acquired in real-time with a fluorescent microscope as described above. Arterial bleeding time was defined as the time from laser pulse injury until cessation of RBC leakage from the vessel."}, "[5]": {"test_system": "washed human platelets", "test": "Human platelet aggregation after pre-treatment with adenylyl cyclase inhibitor SQ 22536", "format": "cell-based", "settings": "platelets pre-treated with SQ 22536 (25 μM, 20 min); 12-HETrE 7.5 to 25 μM, 1 min; EC80 PAR4-AP", "method": "Blood from healthy donors was collected into vacutainers containing buffered sodium citrate, and platelets were isolated by serial centrifugation as described above for mouse platelets. The platelets were resuspended in Tyrode's buffer at 3×10^8 platelets/mL, unless otherwise specified.\nA lumi-aggregometer (Chrono-log model 700D) was used to measure platelet aggregation under stirring conditions (1100 rpm) at 37° C. […]"}, "[6]": {"test_system": "VASP (serine 157)", "test": "VASP phosphorylation in human platelets", "format": "cell-based", "settings": "25 μM, 1 min; vs DMSO", "method": "Washed platelets were treated with PUFA or PUFA metabolite (12(S)-HETrE or compound IIc) for one minute, then directly lysed in 5× Laemmeli sample buffer (1.5 M Tris-HCl, pH 6.8, glycerol, 5% β-mercaptoethanol, 10% sodium dodecyl sulfate (SDS), and 1% bromophenol blue). The samples were boiled for five minutes and then run on a 10% SDS-PAGE gel. The levels of total and phospho-VASP (serine 157) were quantified by Western Blot using an Odyssey imaging system (LI-CoR)."}, "[7]": {"test_system": "platelets of mice expressing the human FcγRIIa receptor", "test": "Animal model of ITP (anti-GPIX in mice expressing human FcγRIIa)", "format": "in vivo, mouse", "settings": "6 mg/kg i.v. 10 min before GPIX antibody", "method": "Mice expressing the human immune-receptor FcγRIIa were injected IV with GPIX, an antibody known to induce acute ITP (Stolla et al., Blood 118(4): 1113-1120, 2011) as previously described (Yeung et al., Blood 124(4): 2271-2279, 2014). […] To determine if 12(S)-HETrE compounds would be viable therapeutics to prevent ITP in this model, 6 mg/kg 12(S)-HETrE was injected IV 10 minutes prior to GPIX antibody injection, and platelet count was measured at several time points prior to and following antibody injection. Additionally, immunofluorescent-labelled platelets that had been injected prior to the onset of ITP were measured in excised lungs 4 hours following GPIX administration."}, "[8]": {"settings": "WT mice, 6 mg/kg i.v. 10 min before laser injury, vs vehicle"}}, "note": "“Also recorded” adds a separate entry of the source."}
{"molecule": "CCCCC/C=C\\C[C@H](O)/C=C/C=C\\CCCCCCC(=O)O", "note": "[12(S)-HETrE, 12(S)-hydroxy-8Z,10E,14Z-eicosatrienoic acid]", "values": [{"measurement": "platelet aggregation", "setting": "[1]; 12-LOX−/− mouse platelets, EC80 PAR4-AP (200 μM) or collagen (2 or 5 μg/mL)", "result": "inhibited the aggregation"}, {"measurement": "platelet aggregation", "setting": "[1]; WT mouse platelets, EC80 PAR4-AP (100 μM) or collagen (5 μg/mL)", "result": "inhibited the aggregation"}, {"measurement": "Rap1 activation (Rap1-GTP)", "setting": "[2]; 12-LOX−/− mouse platelets", "result": "suppressed Rap1 activation"}, {"measurement": "Rap1 activation (Rap1-GTP)", "setting": "[2]; WT mouse platelets", "result": "suppressed Rap1 activation"}, {"measurement": "platelet accumulation", "setting": "[3]; 12-LOX−/− mice, 6 mg/kg i.v., vs 12-LOX−/− alone", "result": "significant inhibition of platelet accumulation"}, {"measurement": "fibrin accumulation", "setting": "[3]; 12-LOX−/− mice, 6 mg/kg i.v., vs vehicle", "result": "no difference in fibrin accumulation"}, {"measurement": "thrombus size and stability by fibrin accumulation", "setting": "[3]; [8]", "result": "significantly smaller and less stable thrombi"}, {"measurement": "thrombus size and stability by platelet accumulation", "setting": "[3]; [8]", "result": "significantly smaller and less stable thrombi"}, {"measurement": "duration of RBC leakage (arterial bleeding time)", "setting": "[4]", "result": "No significant difference in the duration of RBC leakage"}, {"measurement": "PAR4-AP-mediated platelet aggregation", "setting": "[5]", "result": "unable to inhibit PAR4-AP-mediated platelet aggregation"}, {"measurement": "VASP phosphorylation (S157)", "setting": "[6]", "result": "enhanced VASP phosphorylation"}, {"measurement": "reduction of thrombi in the lungs", "setting": "[7]; excised lungs", "result": "more than 40%"}, {"measurement": "accumulation of fluorescently labeled platelets in the lungs", "setting": "[7]; lungs excised 4 hours after GPIX, vs vehicle", "result": "prevented accumulation of fluorescently labeled platelets in the lungs"}, {"measurement": "platelet count (thrombocytopenia)", "setting": "[7]; vs vehicle", "result": "no signs of thrombocytopenia; also recorded: prevented thrombocytopenia"}]}
